What was measured:
Format in all cases: in vivo
[1] = tested on: wild poinsettia (Euphorbia heterophylla); assay: General postemergence herbicidal activity, EPHHL; conditions: Euphorbia heterophylla, post-emergence, 336 h, postemergence spray, visual score after 14 days, 0 = no injury, 100 = complete kill, read-out: Post-emergent Weed Control EPHHL; for pest or weed control at 140 g/ha: 140 g ai/ha; for pest or weed control at 280 g/ha: 280 g ai/ha
Experimental: (§1) Seeds or nutlets of the desired test plant species were planted in Sun Gro MetroMix® 306 planting mixture, which typically has a pH of 6.0 to 6.8 and an organic matter content of about 30 percent, in plastic pots with a surface area of 103 square centimeters. When required to ensure good germination and healthy plants, a fungicide treatment and/or other chemical or physical treatment was applied. The plants were grown for 7-21 days in a greenhouse with an approximate 15 hour photoperiod which was maintained at about 23-29° C. during the day and 22-28° C. during the night. Nutrients and water were added on a regular basis and supplemental lighting was provided with overhead metal halide 1000-Watt lamps as necessary. The plants were employed for testing when they reached the first or second true leaf stage.
(§2) A weighed amount, determined by the highest rate to be tested, of each test compound was placed in a 25 mL glass vial and was dissolved in 4 mL of a 97:3 v/v (volume/volume) mixture of acetone and dimethyl sulfoxide (DMSO) to obtain concentrated stock solutions. […] The concentrated stock solutions obtained were diluted with 20 mL of an aqueous mixture containing acetone, water, isopropyl alcohol, DMSO, Atplus 411F crop oil concentrate, and Triton® X-155 surfactant in a 48.5:39:10:1.5:1.0:0.02 v/v ratio to obtain spray solutions containing the highest application rates. Additional application rates were obtained by serial dilution of 12 mL of the high rate solution into a solution containing 2 mL of 97:3 v/v (volume/volume) mixture of acetone and dimethyl sulfoxide (DMSO) and 10 mL of an aqueous mixture containing acetone, water, isopropyl alcohol, DMSO, Atplus 411F crop oil concentrate, and Triton X-155 surfactant in a 48.5:39:10:1.5:1.0:0.02 v/v ratio to obtain 1/2X, 1/4X, 1/8X and 1/16X rates of the high rate. Compound requirements are based upon a 12 mL application volume at a rate of 187 L/ha. Formulated compounds were applied to the plant material with an overhead Mandel track sprayer equipped with a 8002E nozzles calibrated to deliver 187 L/ha over an application area of 0.503 square meters at a spray height of 18 inches (43 cm) above the average plant canopy height. Control plants were sprayed in the same manner with the solvent blank.
(§3) The treated plants and control plants were placed in a greenhouse as described above and watered by sub-irrigation to prevent wash-off of the test compounds. After 14 days, the condition of the test plants as compared with that of the untreated plants was determined visually and scored on a scale of 0 to 100 percent where 0 corresponds to no injury and 100 corresponds to complete kill.

[2] = tested on: lambsquarter (Chenopodium album); assay: General postemergence herbicidal activity, CHEAL; conditions: Chenopodium album, post-emergence, 336 h, postemergence spray, visual score after 14 days, 0 = no injury, 100 = complete kill, read-out: Post-emergent Weed Control CHEAL; for pest or weed control at 140 g/ha: 140 g ai/ha; for pest or weed control at 280 g/ha: 280 g ai/ha
Experimental: as §1, §2, §3

[3] = tested on: velvetleaf (Abutilon theophrasti); assay: General postemergence herbicidal activity, ABUTH; conditions: Abutilon theophrasti, post-emergence, 336 h, postemergence spray, visual score after 14 days, 0 = no injury, 100 = complete kill, read-out: Post-emergent Weed Control ABUTH; for pest or weed control at 140 g/ha: 140 g ai/ha; for pest or weed control at 280 g/ha: 280 g ai/ha
Experimental: as §1, §2, §3

[4] = tested on: barnyardgrass (Echinochloa crus-galli); assay: General postemergence herbicidal activity, ECHCG; conditions: Echinochloa crus-galli, post-emergence, 336 h, postemergence spray, visual score after 14 days, 0 = no injury, 100 = complete kill, read-out: Post-emergent Weed Control ECHCG; for pest or weed control at 140 g/ha: 140 g ai/ha; for pest or weed control at 280 g/ha: 280 g ai/ha
Experimental: as §1, §2, §3

rice (Oryza sativa) = assay: General postemergence herbicidal activity, ORYSA; conditions: Oryza sativa, post-emergence, 336 h, postemergence spray, visual score after 14 days, 0 = no injury, 100 = complete kill, read-out: Post-emergent Weed Control ORYSA; for plant injury at 140 g/ha: 140 g ai/ha; for plant injury at 280 g/ha: 280 g ai/ha
Experimental: as §1, §2, §3

Compound	pest or weed control at 140 g/ha [1] [%]	pest or weed control at 140 g/ha [2] [%]	pest or weed control at 140 g/ha [3] [%]	pest or weed control at 140 g/ha [4] [%]	plant injury at 140 g/ha (rice (Oryza sativa)) [%]	pest or weed control at 280 g/ha [1] [%]	pest or weed control at 280 g/ha [2] [%]	pest or weed control at 280 g/ha [3] [%]	pest or weed control at 280 g/ha [4] [%]	plant injury at 280 g/ha (rice (Oryza sativa)) [%]
C=C(F)c1c(N)nc(-c2ccc(Cl)c(OC)c2F)nc1C(=O)OC [Compound 9, 6-Amino-2-(4-chloro-2-fluoro-3-methoxyphenyl)-5-(1-fluorovinyl) pyrimidine-4-carboxylic acid methyl ester]	100	95	90	90	0	–	–	–	–	–
C=C(OCC)c1c(N)nc(-c2ccc(Cl)c(OC)c2F)nc1C(=O)OC [Compound 10, 6-Amino-2-(4-chloro-2-fluoro-3-methoxyphenyl)-5-(1-ethoxyvinyl)pyrimidine-4-carboxylic acid methyl ester]	–	–	–	–	–	75	40	50	0	0
C=Cc1c(N)nc(-c2cc(F)c(Cl)cc2F)nc1C(=O)OC [Compound 12, 6-Amino-2-(4-chloro-2,5-difluorophenyl)-5-vinylpyrimidine-4-carboxylic acid methyl ester]	50	100	100	50	0	–	–	–	–	–
C=Cc1c(N)nc(-c2cc(C)c(Cl)cc2F)nc1C(=O)OC [Compound 13, 6-Amino-2-(4-chloro-2-fluoro-5-methylphenyl)-5-vinylpyrimidine-4-carboxylic acid methyl ester]	–	–	–	–	–	60	100	90	0	0
C=Cc1c(N)nc(-c2ccc(Cl)c(C(F)F)c2F)nc1C(=O)OC [Compound 15, 6-Amino-2-(4-chloro-3-difluoromethyl-2-fluorophenyl)-5-vinylpyrimidine-4-carboxylic acid methyl ester]	100	100	100	100	5	–	–	–	–	–
C=Cc1c(N)nc(-c2ccc(Cl)c(F)c2)nc1C(=O)OC [Compound 16, 6-Amino-2-(4-chloro-3-fluorophenyl)-5-vinylpyrimidine-4-carboxylic acid methyl ester]	80	95	100	0	0	–	–	–	–	–
C=Cc1c(N)nc(-c2ccc(Cl)c(OC(F)F)c2F)nc1C(=O)OC [Compound 17, 6-Amino-2-(4-chloro-3-difluoromethoxy-2-fluorophenyl)-5-vinylpyrimidine-4-carboxylic acid methyl ester]	–	–	–	–	–	100	100	100	100	0
C=Cc1c(N)nc(-c2ccc(Cl)c(F)c2)nc1C(=O)O [Compound 49, 6-Amino-2-(4-chloro-3-fluorophenyl)-5-vinylpyrimidine-4-carboxylic acid]	100	100	65	–	0	–	–	–	–	–
C=Cc1c(C(=O)O)nc(-c2ccc(Cl)cc2)c(F)c1N [Compound 61, 4-Amino-6-(4-chlorophenyl)-5-fluoro-3-vinylpyridine-2-carboxylic acid]	95	100	100	–	50	–	–	–	–	–
C=Cc1c(N)nc(-c2ccc(Cl)c(OC)c2F)nc1C(=O)OCCCC [Compound 62, 6-Amino-2-(4-chloro-2-fluoro-3-methoxyphenyl)-5-vinyl-pyrimidine-4-carboxylic acid butyl ester]	100	100	100	–	25	–	–	–	–	–

Source: patent publication US8658791B2, “2-substituted-6-amino-5-alkyl, alkenyl or alkynyl-4-pyrimidinecarboxylic acids and 6-substituted-4-amino-3-alkyl, alkenyl or alkynyl picolinic acids and their use as herbicides” (Dow AgroSciences, LLC, priority 2007, dated 2014)
